Converted amounts (≈) assume the structure as drawn. Read-outs that look alike come from different tables or passages of the source.
Columns and labels:
E. coli DNA gyrase = target: T1, E. coli DNA gyrase (Escherichia coli, UniProt P0AES6); assay: Test for evaluating the activity of inhibiting E. coli DNA gyrase enzyme (Method 2, supercoiling, recombinant gyrA/gyrB complex); type: biochemical
T1 construct: made in house; host or cells: E. coli BL21 (DE3)
Description: The enzymatic activity of E. coli DNA gyrase was measured by a method comprising reacting DNA gyrase and its substrate, relaxed pBR322 (Inspiralis), in the presence of ATP and detecting the post-reaction supercoiled pBR322/relaxed pBR322 ratio with H19.
Specifically, to 1 ng/μL of relaxed pBR322, E. coli DNA gyrase enzyme (the gyrA or gyrB gene was incorporated into the pET15b plasmid and after expressing them in E. coli BL21 (DE3), purification was performed using a Ni-NTA column to form a complex at room temperature) was added at a final concentration of 0.135 nmol/mL and the mixture was incubated for 60 minutes at room temperature. This reaction was carried out in 20 mmol/L tris-HCl buffered solution (pH 8.0) comprising 0.5 mmol/L ATP, 0.005% bridge 35, 35 mmol/L ammonium acetate, 8 mmol/L magnesium chloride, 4.6% glycerol, and 1 mmol/L dithiothreitol. To the reaction mixture, H19 was added to bring the reaction to an end; thereafter, the supercoiled pBR322/relaxed pBR322 ratio was detected at excitation wavelength/emission wavelength=485 nm/535 nm. An inhibition curve was obtained by allowing the analyte compound to be present at varying concentrations during the reaction described above.

E. Coli ATCC 25922 = assay: Test for evaluating antibacterial activity (E. coli), broth microdilution MIC; type: cell-based; settings: Escherichia coli, ATCC25922; 35° C., 18 hours, cation-adjusted Mueller-Hinton medium
Description: Minimum inhibitory concentration (MIC) was measured using the broth microdilution method described below in accordance with a modification of the standard method specified by CLSI (Clinical & Laboratory Standards Institute).
Bacterial cells under test were cultured overnight on a heart infusion agar medium, scraped off and suspended at a concentration equivalent to McFarland 0.5 turbidity; the suspension thus obtained was diluted 10 folds to give a liquid inoculum. The inoculum (0.005 mL) was inoculated on a cation-adjusted Mueller-Hinton medium containing the analyte compound and cultured at 35° C. for 18 hours. A minimum drug concentration at which no bacterial growth was macroscopically visible was designated MIC.

[1] = Method 2, read-out: E. Coli Gyrase supercoiling IC50

SMILES	IC50 (E. coli DNA gyrase; [1])	MIC (E. Coli ATCC 25922)	IC50 (E. coli DNA gyrase)	inhibition at 10 µM (E. coli DNA gyrase; Method 2, at 10000 nM)
CNc1cccc2cc(C(=O)Nc3cnc(NCCN4CCN(C)CC4)nc3)c(=O)[nH]c12 [Example 34, 8-(methylamino)-N-(2-{[2-(4-methylpiperazine-1-yl)ethyl]amino}pyrimidine-5-yl)-2-oxo-1,2-dihydroquinoline-3-carboxamide]	23.2 nM	> 64 µg/mL		
CNc1cccc2cc(C(=O)Nc3cnc(NCc4csc(N)n4)nc3)c(=O)[nH]c12 [Example 35, N-(2-[[(2-Amino-1,3-thiazol-4-yl)methyl]amino]pyrimidin-5-yl)-8-(methylamino)-2-oxo-1,2-dihydroquinoline-3-carboxamide]	1.47 nM	> 4 µg/mL		
CNc1cccc2cc(C(=O)NCCc3noc(=O)[nH]3)c(=O)[nH]c12 [Example 36, 8-(methylamino)-2-oxo-N-[2-(5-oxo-4,5-dihydro-1,2,4-oxadiazole-3-y1)ethyl]-1,2-dihydroquinoline-3-carboxamide]	71.9 nM	> 32 µg/mL		
CNc1cccc2cc(C(=O)Nc3ccc(C(=O)NC(CO)CO)cc3)c(=O)[nH]c12 [Example 38, N-{4-[(1,3-dihydroxypropane-2-yl)carbamoyl]phenyl}-8-(methylamino)-2-oxo-1,2-dihydroquinoline-3-carboxamide]	4730 nM			
CNc1cccc2cc(C(=O)Nc3cnc(N4CCC(N)(C(=O)O)CC4)nc3)c(=O)[nH]c12.Cl [Example 39, 4-Amino-1-(5-[[8-(methylamino)-2-oxo-1,2-dihydroquinoline-3-carbonyl]amino]pyrimidin-2-yl)piperidine-4-carboxylic acid-hydrochloride]		> 8 µg/mL	48.7 nM	
CNc1cccc2cc(C(=O)Nc3cnc(NCCCN(CCO)CCO)nc3)c(=O)[nH]c12 [Example 41, N-[2-({3-[bis(2-hydroxyethyl)amino]propyl}amino)pyrimidine-5-yl]-8-(methylamino)-2-oxo-1,2-dihydroquinoline-3-carboxamide]	149 nM	> 64 µg/mL		
CNc1cc(F)cc2cc(C(=O)N(C)c3cncnc3)c(=O)[nH]c12 [Example 61, 6-fluoro-N-methyl-8-(methylamino)-2-oxo-N-(pyrimidine-5-yl)-1,2-dihydroquinoline-3-carboxamide]	334 nM			
CNc1cc(F)cc2cc(C(=O)Nc3cnc(C(=O)NCCCN4CCOCC4)nc3)c(=O)[nH]c12 [Example 82, 6-fluoro-8-(methylamino)-N-(2-{[3-(morpholine-4-yl)propyl]carbamoyl}pyrimidine-5-yl)-2-oxo-1,2-dihydroquinoline-3-carboxamide]	0.47 nM	0.25 µg/mL (≈ 0.517 µM)		
CNc1cc(F)cc2cc(C(=O)Nc3ccc(C(=O)NCCN4CCOCC4)cc3CN(C)C3CCN(C)CC3)c(=O)[nH]c12 [Example 84, 6-fluoro-8-(methylamino)-N-(2-{[methyl(1-methylpiperidine-4-yl)amino]methyl}-4-{[2-(morpholine-4-yl)ethyl]carbamoyl}phenyl)-2-oxo-1,2-dihydroquinoline-3-carboxamide]	11.4 nM	> 32 µg/mL		
CNc1cc(F)cc2cc(C(=O)Nc3ccc(C(=O)NCCN4CCOCC4)cc3C)c(=O)[nH]c12 [Example 86, 6-fluoro-8-(methylamino)-N-(2-methyl-4-{[2-(morpholine-4-yl)ethyl]carbamoyl}phenyl)-2-oxo-1,2-dihydroquinoline-3-carboxamide]	34.4 nM	> 4 µg/mL		
CNc1cc(F)cc2cc(C(=O)Nc3nccn3C)c(=O)[nH]c12 [Example 87, 6-fluoro-8-(methylamino)-N-(1-methyl-1H-imidazole-2-yl)-2-oxo-1,2-dihydroquinoline-3-carboxamide]	1040 nM			
CNc1cc(F)cc2cc(C(=O)Nc3ccn(C)n3)c(=O)[nH]c12 [Example 88, 6-fluoro-8-(methylamino)-N-(1-methyl-1H-pyrazole-3-yl)-2-oxo-1,2-dihydroquinoline-3-carboxamide]				41%
CNc1cc(F)cc2cc(C(=O)Nc3ccnn3C)c(=O)[nH]c12 [Example 89, 6-fluoro-8-(methylamino)-N-(1-methyl-1H-pyrazole-5-yl)-2-oxo-1,2-dihydroquinoline-3-carboxamide]	29.9 nM	> 8 µg/mL		
CNc1cc(F)cc2cc(C(=O)Nc3cnc(C(=O)NCCN4CCCCC4)nc3)c(=O)[nH]c12.O=CO [Example 90, 6-fluoro-8-(methylamino)-2-oxo-N-(2-{[2-(piperidine-1-yl)ethyl]carbamoyl}pyrimidine-5-yl)-1,2-dihydroquinoline-3-carboxamide-formate]		> 16 µg/mL	2.45 nM	
CNc1cc(F)cc2cc(C(=O)Nc3ccc(C(=O)NO)cc3)c(=O)[nH]c12 [Example 92, 6-Fluoro-N-[4-(hydroxycarbamoyl)phenyl]-8-(methylamino)-2-oxo-1,2-dihydroquinoline-3-carboxamide]	2.56 nM	> 4 µg/mL		
CCc1cc(C(=O)NCCN2CCOCC2)ccc1NC(=O)c1cc2cc(F)cc(NC)c2[nH]c1=O [Example 94, N-(2-ethyl-4-{[2-(morpholine-4-yl)ethyl]carbamoyl}phenyl)-6-fluoro-8-(methylamino)-2-oxo-1,2-dihydroquinoline-3-carboxamide]	131 nM	> 2 µg/mL		
CNc1cc(F)cc2cc(C(=O)Nc3ccc(C(=O)O)cc3CN(C)C3CC3)c(=O)[nH]c12 [Example 97, 3-{[cyclopropyl (methyl)amino]methyl}-4-{[6-fluoro-8-(methylamino)-2-oxo-1,2-dihydroquinoline-3-carbonyl]amino} benzoic acid]		> 8 µg/mL	0.6 nM	
CCCCCN(CCCCC)Cc1cc(C(=O)O)ccc1NC(=O)c1cc2cc(F)cc(NC)c2[nH]c1=O [Example 101, 3-[(dipentylamino)methyl]-4-{[6-fluoro-8-(methylamino)-2-oxo-1,2-dihydroquinoline-3-carbonyl]amino} benzoic acid]	0.8 nM			
CNc1cc(F)cc2cc(C(=O)Nc3ccc(C(=O)O)cc3CCC3CCCCC3)c(=O)[nH]c12 [Example 102, 3-(2-cyclohexylethyl)-4-{[6-fluoro-8-(methylamino)-2-oxo-1,2-dihydroquinoline-3-carbonyl]amino} benzoic acid]			228 nM	
CNc1cc(F)cc2cc(C(=O)Nc3ccc(C(=O)O)cc3CN(CCCN(C)C)CCCN(C)C)c(=O)[nH]c12 [Example 105, 3-({bis[3-(dimethylamino)propyl]amino}methyl)-4-{[6-fluoro-8-(methylamino)-2-oxo-1,2-dihydroquinoline-3-carbonyl]amino} benzoic acid]	29.8 nM	> 32 µg/mL		
CNc1cc(F)cc2cc(C(=O)Nc3ccc(C(=O)O)cc3CN3CCCC(N)C3)c(=O)[nH]c12.Cl (stereo not drawn) [Example 109, 3-[(3-Aminopiperidin-1-yl)methyl]-4-[[6-fluoro-8-(methylamino)-2-oxo-1,2-dihydroquinoline-3-carbonyl]amino]benzoic acid-hydrochloride]		> 32 µg/mL	15.1 nM	
CNc1cc(F)cc2cc(C(=O)Nc3ccc(C(=O)O)cc3CCN(C)C3CCCCC3)c(=O)[nH]c12 [Example 111, 3-{2-[cyclohexyl (methyl)amino]ethyl}-4-{[6-fluoro-8-(methylamino)-2-oxo-1,2-dihydroquinoline-3-carbonyl]amino} benzoic acid]	2.94 nM	> 32 µg/mL		
CCCCCN(CCCCC)Cc1cc(C(=O)O)ccc1NC(=O)c1cc2cncc(NC)c2[nH]c1=O [Example 112, 3-[(dipentylamino)methyl]-4-{[8-(methylamino)-2-oxo-1,2-dihydro-1,6-naphthyridine-3-carbonyl]amino}benzoic acid]	4.13 nM	> 64 µg/mL		
CNc1cc(F)cc2cc(C(=O)Nc3ccc(C(=O)O)cc3CNC3CCCCC3)c(=O)[nH]c12.O=C(O)C(F)(F)F [Example 113, 3-[(cyclohexylamino)methyl]-4-{[6-fluoro-8-(methylamino)-2-oxo-1,2-dihydroquinoline-3-carbonyl]amino}benzoic acid-trifluoroacetate]		32 µg/mL	0.26 nM	
CNc1cc(F)cc2cc(C(=O)Nc3ccc(C(=O)O)cc3N(C)C3CCCCC3)c(=O)[nH]c12 [Example 114, 3-[Cyclohexyl(methyl)amino]-4-[[6-fluoro-8-(methylamino)-2-oxo-1,2-dihydroquinoline-3-carbonyl]amino]benzoic Acid]	339 nM	> 32 µg/mL		
CNc1cc(F)cc2cc(C(=O)Nc3ccc(CO)cc3CN(CCO)C3CCCCC3)c(=O)[nH]c12 [Example 124, N-[2-{[cyclohexyl(2-hydroxyethyl)amino]methyl}-4-(hydroxymethyl)phenyl]-6-fluoro-8-(methylamino)-2-oxo-1,2-dihydroquinoline-3-carboxamide]	1.6 nM			

Source: patent US20210070747A1, “2(1H)-QUINOLINONE DERIVATIVE” (priority 2017, published 2021)
